# Laboratory results as given in ChEMBL document CHEMBL1909046, “DrugMatrix in vitro pharmacology data”.
# How the values were obtained:
# [1] = DRUGMATRIX: Atrial Natriuretic Factor (ANF) radioligand binding (ligand: [125I] ANF (rat)); format: cell membranes, Cavia porcellus, Dunkin-Hartley, Adrenal gland, Membrane; conditions: Not Active = under 50% inhibition at 10 µM
# [2] = target: T1, 5-hydroxytryptamine receptor 2C (Homo sapiens, UniProt P28335); test: DRUGMATRIX: Serotonin (5-Hydroxytryptamine) 5-HT2C radioligand binding (ligand: [3H] Mesulergine); format: cell membranes, CHO-K1, Membrane; conditions: Not Active = under 50% inhibition at 10 µM
# T1 sequence (P28335 whole entry): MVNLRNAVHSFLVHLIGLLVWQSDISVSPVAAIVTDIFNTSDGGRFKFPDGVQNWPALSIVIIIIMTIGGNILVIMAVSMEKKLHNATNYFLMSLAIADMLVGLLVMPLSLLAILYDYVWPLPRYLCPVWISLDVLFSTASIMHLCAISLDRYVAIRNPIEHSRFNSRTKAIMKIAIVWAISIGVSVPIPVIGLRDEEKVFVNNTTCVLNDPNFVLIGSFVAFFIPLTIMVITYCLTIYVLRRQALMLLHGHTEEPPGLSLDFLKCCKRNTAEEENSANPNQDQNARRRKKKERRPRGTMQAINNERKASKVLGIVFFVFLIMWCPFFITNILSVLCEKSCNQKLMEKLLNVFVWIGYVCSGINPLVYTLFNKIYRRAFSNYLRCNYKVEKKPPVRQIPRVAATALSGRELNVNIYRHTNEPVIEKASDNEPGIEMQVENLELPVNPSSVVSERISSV
# [3] = DRUGMATRIX: Leukotriene, BLT (LTB4) radioligand binding (ligand: [3H]LTB4); format: cell membranes, Membrane; conditions: u-937; Not Active = under 50% inhibition at 10 µM
# [4] = target: T2, Muscarinic acetylcholine receptor M4 (Homo sapiens, UniProt P08173); format: cell membranes, CHO-K1, Membrane; note: in other assays of this panel Not Active means under 50% inhibition at 10 µM
# T2 sequence (P08173 whole entry): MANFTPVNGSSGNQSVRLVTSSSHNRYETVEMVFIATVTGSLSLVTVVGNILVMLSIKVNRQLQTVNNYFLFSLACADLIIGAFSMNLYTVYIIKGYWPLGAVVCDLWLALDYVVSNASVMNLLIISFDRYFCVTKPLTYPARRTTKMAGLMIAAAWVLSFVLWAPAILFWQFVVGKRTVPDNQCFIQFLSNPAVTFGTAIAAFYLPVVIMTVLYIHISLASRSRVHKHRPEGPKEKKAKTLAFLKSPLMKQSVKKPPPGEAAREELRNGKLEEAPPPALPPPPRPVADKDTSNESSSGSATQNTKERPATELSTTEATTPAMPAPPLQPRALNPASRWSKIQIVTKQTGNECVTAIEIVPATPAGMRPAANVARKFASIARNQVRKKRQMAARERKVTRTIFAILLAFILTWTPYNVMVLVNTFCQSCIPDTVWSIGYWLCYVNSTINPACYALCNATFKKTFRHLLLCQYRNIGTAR
# [5] = target: Platelet-activating factor receptor (Homo sapiens, UniProt P25105); format: tissue-based; note: in other assays of this panel Not Active means under 50% inhibition at 10 µM
# [6] = target: T3, Cytochrome P450 2A6 (Homo sapiens, UniProt P11509); conditions: bti-tn-5b1-4; note: in other assays of this panel Not Active means under 50% inhibition at 10 µM
# T3 sequence (P11509 whole entry): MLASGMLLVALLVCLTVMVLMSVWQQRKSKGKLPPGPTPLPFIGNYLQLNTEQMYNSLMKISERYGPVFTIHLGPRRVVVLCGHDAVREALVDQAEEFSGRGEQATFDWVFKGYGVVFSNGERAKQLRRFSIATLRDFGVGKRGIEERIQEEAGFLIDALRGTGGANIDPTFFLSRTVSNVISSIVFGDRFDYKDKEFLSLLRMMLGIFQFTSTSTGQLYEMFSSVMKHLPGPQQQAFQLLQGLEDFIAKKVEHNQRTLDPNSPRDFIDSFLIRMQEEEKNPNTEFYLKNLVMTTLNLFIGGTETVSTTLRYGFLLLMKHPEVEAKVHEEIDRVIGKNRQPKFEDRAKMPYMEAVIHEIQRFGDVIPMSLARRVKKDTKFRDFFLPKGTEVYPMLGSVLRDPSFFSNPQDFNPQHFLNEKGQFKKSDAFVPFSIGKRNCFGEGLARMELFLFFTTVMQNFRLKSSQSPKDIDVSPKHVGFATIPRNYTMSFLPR
# [7] = target: Cytochrome P450 2D6 (Homo sapiens, UniProt P10635); conditions: bti-tn-5b1-4; note: in other assays of this panel Not Active means under 50% inhibition at 10 µM
# Cytochrome P450 2D6, sequence (P10635 whole entry): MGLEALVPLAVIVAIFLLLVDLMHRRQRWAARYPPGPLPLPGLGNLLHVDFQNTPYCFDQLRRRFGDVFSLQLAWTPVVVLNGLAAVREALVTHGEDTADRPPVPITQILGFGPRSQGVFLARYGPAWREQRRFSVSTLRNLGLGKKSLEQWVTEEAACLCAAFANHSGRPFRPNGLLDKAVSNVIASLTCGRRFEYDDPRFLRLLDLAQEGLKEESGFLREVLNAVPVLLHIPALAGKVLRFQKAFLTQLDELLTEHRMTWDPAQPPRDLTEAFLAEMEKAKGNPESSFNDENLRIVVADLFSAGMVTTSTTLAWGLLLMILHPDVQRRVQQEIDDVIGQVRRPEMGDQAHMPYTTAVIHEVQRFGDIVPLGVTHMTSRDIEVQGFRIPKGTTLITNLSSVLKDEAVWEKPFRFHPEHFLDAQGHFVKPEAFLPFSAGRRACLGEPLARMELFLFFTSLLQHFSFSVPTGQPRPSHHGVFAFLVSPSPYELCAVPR
# Platelet-activating factor receptor, sequence (P25105 whole entry): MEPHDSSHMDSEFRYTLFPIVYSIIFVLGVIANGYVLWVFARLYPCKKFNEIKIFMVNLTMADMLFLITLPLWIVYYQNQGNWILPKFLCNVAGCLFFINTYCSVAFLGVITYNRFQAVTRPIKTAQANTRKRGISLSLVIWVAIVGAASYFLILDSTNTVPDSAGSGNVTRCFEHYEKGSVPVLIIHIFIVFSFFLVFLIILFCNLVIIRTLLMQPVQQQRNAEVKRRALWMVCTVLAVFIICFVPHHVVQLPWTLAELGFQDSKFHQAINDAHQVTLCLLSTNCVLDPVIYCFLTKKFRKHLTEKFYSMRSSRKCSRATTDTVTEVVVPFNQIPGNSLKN
smiles,measurement,setting,value
Cc1nnc2n1-c1ccc(Cl)cc1C(c1ccccc1)=NC2 [ALPRAZOLAM],IC50,[1],Not Active
same,Ki,[1],Not Active
same,IC50,[2]; cho-k1,Not Active
same,IC50,[3],Not Active
same,Ki,[3],Not Active
same,IC50,[4]; cho-k1,Not Active
same,IC50,[5],Not Active
same,IC50,[6],Not Active
same,Ki,[6],Not Active
same,IC50,[7],Not Active
same,Ki,[7],Not Active
Cn1c(=O)c2[nH]cnc2n(C)c1=O.Cn1c(=O)c2[nH]cnc2n(C)c1=O.NCCN [AMINOPHYLLINE],IC50,[1],Not Active
same,Ki,[1],Not Active
same,IC50,[2]; cho-k1,Not Active
same,IC50,[3],Not Active
same,Ki,[3],Not Active
same,IC50,[4]; cho-k1,Not Active
same,IC50,[5],Not Active
same,IC50,[6],Not Active
same,Ki,[6],Not Active
same,IC50,[7],Not Active
same,Ki,[7],Not Active
CCC1(CCC(C)C)C(=O)NC(=O)NC1=O [AMOBARBITAL],IC50,[1],Not Active
same,Ki,[1],Not Active
same,IC50,[2]; cho-k1,Not Active
same,IC50,[3],Not Active
same,Ki,[3],Not Active
same,IC50,[4]; cho-k1,Not Active
same,IC50,[5],Not Active
same,IC50,[6],Not Active
same,Ki,[6],Not Active
same,IC50,[7],Not Active
same,Ki,[7],Not Active
CC1(C)S[C@@H]2[C@H](NC(=O)[C@H](N)c3ccccc3)C(=O)N2[C@H]1C(=O)O [AMPICILLIN],IC50,[1],Not Active
same,Ki,[1],Not Active
same,IC50,[2]; cho-k1,Not Active
same,IC50,[3],Not Active
same,Ki,[3],Not Active
same,IC50,[4]; cho-k1,Not Active
same,IC50,[5],Not Active
same,IC50,[6],Not Active
same,Ki,[6],Not Active
same,IC50,[7],Not Active
same,Ki,[7],Not Active
COc1ccc(C2C(=O)c3ccccc3C2=O)cc1 [ANISINDIONE],IC50,[1],Not Active
same,Ki,[1],Not Active
same,IC50,[2]; cho-k1,Not Active
same,IC50,[3],Not Active
same,Ki,[3],Not Active
same,IC50,[4]; cho-k1,Not Active
same,IC50,[5],Not Active
same,IC50,[6],Not Active
same,Ki,[6],Not Active
same,IC50,[7],Not Active
same,Ki,[7],Not Active
O=C1O[C@H]([C@@H](O)CO)C(O)=C1O [ASCORBIC ACID],IC50,[1],Not Active
same,Ki,[1],Not Active
same,IC50,[2]; cho-k1,Not Active
same,IC50,[3],Not Active
same,Ki,[3],Not Active
same,IC50,[4]; cho-k1,Not Active
same,IC50,[5],Not Active
same,IC50,[6],Not Active
same,Ki,[6],Not Active
same,IC50,[7],Not Active
same,Ki,[7],Not Active
CC(C(=O)O)c1ccc2oc(-c3ccc(Cl)cc3)nc2c1 (stereo not given) [BENOXAPROFEN],IC50,[1],Not Active
same,Ki,[1],Not Active
same,IC50,[2]; cho-k1,Not Active
same,IC50,[3],Not Active
same,Ki,[3],Not Active
same,IC50,[4]; cho-k1,Not Active
same,IC50,[5],Not Active
same,IC50,[6],Not Active
same,Ki,[6],Not Active
same,IC50,[7],Not Active
same,Ki,[7],Not Active
O=C(O)CCNC(=O)c1ccccc1 [BETAMIPRON],IC50,[1],Not Active
same,Ki,[1],Not Active
same,IC50,[2]; cho-k1,Not Active
same,IC50,[3],Not Active
same,Ki,[3],Not Active
same,IC50,[4]; cho-k1,Not Active
same,IC50,[5],Not Active
same,IC50,[6],Not Active
same,Ki,[6],Not Active
same,IC50,[7],Not Active
same,Ki,[7],Not Active
CC(=O)Oc1ccc(C(c2ccc(OC(C)=O)cc2)c2ccccn2)cc1 [BISACODYL],IC50,[1],Not Active
same,Ki,[1],Not Active
same,IC50,[2]; cho-k1,Not Active
same,IC50,[3],Not Active
same,Ki,[3],Not Active
same,IC50,[4]; cho-k1,Not Active
same,IC50,[5],Not Active
same,IC50,[6],Not Active
same,Ki,[6],Not Active
same,IC50,[7],Not Active
same,Ki,[7],Not Active
Brc1c(NC2=NCCN2)ccc2nccnc12 [BRIMONIDINE],IC50,[1],Not Active
same,Ki,[1],Not Active
same,IC50,[2]; cho-k1,Not Active
same,IC50,[3],Not Active
same,Ki,[3],Not Active
same,IC50,[4]; cho-k1,Not Active
same,IC50,[5],Not Active
same,IC50,[6],Not Active
same,Ki,[6],Not Active
same,IC50,[7],Not Active
same,Ki,[7],Not Active
CN(C)[C@@H]1C(O)=C(C(N)=O)C(=O)[C@@]2(O)C(O)=C3C(=O)c4c(O)ccc(Cl)c4[C@@](C)(O)[C@H]3C[C@@H]12 [CHLORTETRACYCLINE],IC50,[1],Not Active
same,Ki,[1],Not Active
same,IC50,[2]; cho-k1,Not Active
same,IC50,[3],Not Active
same,Ki,[3],Not Active
same,IC50,[4]; cho-k1,Not Active
same,IC50,[5],Not Active
same,IC50,[6],Not Active
same,Ki,[6],Not Active
same,IC50,[7],Not Active
same,Ki,[7],Not Active
CN/C(=N\CCSCc1nc[nH]c1C)NC#N [CIMETIDINE],IC50,[1],Not Active
same,Ki,[1],Not Active
same,IC50,[2]; cho-k1,Not Active
same,IC50,[3],Not Active
same,Ki,[3],Not Active
same,IC50,[4]; cho-k1,Not Active
same,IC50,[5],Not Active
same,IC50,[6],Not Active
same,Ki,[6],Not Active
same,IC50,[7],Not Active
same,Ki,[7],Not Active
CCC(=O)O[C@]1(C(=O)CCl)[C@@H](C)C[C@H]2[C@@H]3CCC4=CC(=O)C=C[C@]4(C)[C@@]3(F)[C@@H](O)C[C@@]21C [CLOBETASOL PROPIONATE],IC50,[1],Not Active
same,Ki,[1],Not Active
same,IC50,[2]; cho-k1,Not Active
same,IC50,[3],Not Active
same,Ki,[3],Not Active
same,IC50,[4]; cho-k1,Not Active
same,IC50,[5],Not Active
same,IC50,[6],Not Active
same,Ki,[6],Not Active
same,IC50,[7],Not Active
same,Ki,[7],Not Active
O=C1CN=C(c2ccccc2Cl)c2cc([N+](=O)[O-])ccc2N1 [CLONAZEPAM],IC50,[1],Not Active
same,Ki,[1],Not Active
same,IC50,[2]; cho-k1,Not Active
same,IC50,[3],Not Active
same,Ki,[3],Not Active
same,IC50,[4]; cho-k1,Not Active
same,IC50,[5],Not Active
same,IC50,[6],Not Active
same,Ki,[6],Not Active
same,IC50,[7],Not Active
same,Ki,[7],Not Active
Nc1ccn([C@@H]2O[C@H](CO)[C@@H](O)[C@@H]2O)c(=O)n1 [CYTARABINE],IC50,[1],Not Active
same,Ki,[1],Not Active
same,IC50,[2]; cho-k1,Not Active
same,IC50,[3],Not Active
same,Ki,[3],Not Active
same,IC50,[4]; cho-k1,Not Active
same,IC50,[5],Not Active
same,IC50,[6],Not Active
same,Ki,[6],Not Active
same,IC50,[7],Not Active
same,Ki,[7],Not Active
C[C@@H]1C[C@H]2[C@@H]3CCC4=CC(=O)C=C[C@]4(C)[C@@]3(F)[C@@H](O)C[C@]2(C)[C@H]1C(=O)CO [DESOXIMETASONE],IC50,[1],Not Active
same,Ki,[1],Not Active
same,IC50,[2]; cho-k1,Not Active
same,IC50,[3],Not Active
same,Ki,[3],Not Active
same,IC50,[4]; cho-k1,Not Active
same,IC50,[5],Not Active
same,IC50,[6],Not Active
same,Ki,[6],Not Active
same,IC50,[7],Not Active
same,Ki,[7],Not Active
CN(C)CC[C@@H](c1ccc(Cl)cc1)c1ccccn1 [DEXCHLORPHENIRAMINE],IC50,[1],Not Active
same,Ki,[1],Not Active
same,IC50,[2]; read-out: IC50,2.32 µM
same,Ki,[2]; read-out: Ki,1.22 µM
same,IC50,[3],Not Active
same,Ki,[3],Not Active
same,IC50,[4]; read-out: IC50,1.98 µM
same,Ki,[4]; read-out: Ki,0.276 µM
same,IC50,[5],Not Active
same,IC50,[6],Not Active
same,Ki,[6],Not Active
same,IC50,[7],Not Active
same,Ki,[7],Not Active
C[C@@H]1CC[C@@]2(OC1)O[C@H]1[C@@H](O)[C@H]3[C@@H]4CC[C@H]5C[C@@H](O[C@@H]6O[C@H](CO)[C@H](O[C@@H]7O[C@H](CO)C(O)[C@H](O[C@@H]8OC[C@@H](O)[C@H](O)[C@H]8O)[C@H]7O[C@@H]7O[C@H](CO)[C@H](O)[C@H](O[C@@H]8O[C@H](CO)[C@@H](O)[C@H](O)[C@H]8O)[C@H]7O)[C@H](O)[C@H]6O)[C@H](O)C[C@]5(C)[C@H]4CC[C@]3(C)[C@H]1[C@@H]2C (stereo not given in full) [DIGITONIN],IC50,[1],Not Active
same,Ki,[1],Not Active
same,IC50,[2]; cho-k1,Not Active
same,IC50,[3],Not Active
same,Ki,[3],Not Active
same,IC50,[4]; cho-k1,Not Active
same,IC50,[5],Not Active
same,IC50,[6],Not Active
same,Ki,[6],Not Active
same,IC50,[7],Not Active
same,Ki,[7],Not Active
